Where “and” joins values, the source holds several entries; their conditions need not be identical. Equal values may be shown once. Toxic doses and inconclusive results are not listed.
System: CD2F1 mice, L1210 leukemia ip, survival T/C
Test: NCI In Vivo Anticancer Drug Screen. Data for tumor model L1210 Leukemia (intraperitoneal) in CD2F1 (CDF1) mice
Conditions: higher = longer survival
In short: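 Antitumor effect is scored in animals hosting a serially transplanted tumor. Values compare compound-dosed animals against vehicle-only controls as a simple quotient.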

[1] = endpoint: mean survival time, dose: 100.0 mg/kg/injection, schedule: Q04DX003 (ip), vehicle: saline with Tween-80
[2] = endpoint: mean survival time, dose: 200.0 mg/kg/injection, schedule: Q04DX003 (ip), vehicle: saline with Tween-80
[3] = endpoint: mean survival time, dose: 400.0 mg/kg/injection, schedule: Q04DX003 (ip), vehicle: saline with Tween-80
[4] = endpoint: mean survival time, dose: 100.0 mg/kg/injection, schedule: Q01DX009 (ip), vehicle: other

In the case of `C=CCCCCCCCCC(=O)N(CC#N)CC(C)C`, the T/C (endpoint: mean survival time, dose: 100.0 mg/kg/injection, schedule: Q01DX009 (ip), vehicle: saline with Tween-80) is reported as 104 % of control, the T/C [1] is reported as 96 % of control and the T/C (endpoint: mean survival time, dose: 200.0 mg/kg/injection, schedule: Q01DX009 (ip), vehicle: saline with Tween-80) is reported as 96 % of control. For the same compound, the T/C [2] was 100 % of control and the T/C [3] was 94 % of control.

For `N#Cc1ccccc1C#N`, the T/C (endpoint: mean survival time, dose: 25.0 mg/kg/injection, schedule: Q04DX003 (ip), vehicle: saline with Tween-80) was 97 % of control.

In the case of `Oc1cc2c(cc1O)-c1[nH]ncc1CC2`, the T/C (endpoint: mean survival time, dose: 100.0 mg/kg/injection, schedule: Q04DX002 (ip), vehicle: saline with Tween-80) is reported as 115 % of control, the T/C (endpoint: mean survival time, dose: 200.0 mg/kg/injection, schedule: Q04DX002 (ip), vehicle: saline with Tween-80) is reported as 103 % of control and the T/C (endpoint: mean survival time, dose: 400.0 mg/kg/injection, schedule: Q04DX002 (ip), vehicle: saline with Tween-80) is reported as 98 % of control.

In the case of `Nc1ccccc1-c1ccc([N+](=O)[O-])cc1`, the T/C [1] is reported as 94 % of control, the T/C [2] is reported as 92 % of control and the T/C [3] is reported as 101 % of control.

With `CC(C)(C)NSc1nc2ccccc2s1` the T/C [1] was 96 % of control and the T/C [2] was 96 % of control.

For `Cc1cc2ccc(Br)cc2[nH]1`, the T/C (endpoint: mean survival time, dose: 100.0 mg/kg/injection, schedule: Q01DX001 (ip), vehicle: other) was 104 % of control, the T/C (endpoint: mean survival time, dose: 200.0 mg/kg/injection, schedule: Q01DX001 (ip), vehicle: other) was 101 % of control and the T/C (endpoint: mean survival time, dose: 400.0 mg/kg/injection, schedule: Q01DX001 (ip), vehicle: other) was 98 % of control.

`Cc1cn(C2CC(O)C(COC(=O)Nc3cccc4ccccc34)O2)c(=O)[nH]c1=O` (stereo not given) was tested, and the T/C (endpoint: mean survival time, dose: 12.5 mg/kg/injection, schedule: Q01DX005 (ip), vehicle: other) was 100 % of control, the T/C (endpoint: mean survival time, dose: 25.0 mg/kg/injection, schedule: Q01DX005 (ip), vehicle: other) was 100 % of control and the T/C (endpoint: mean survival time, dose: 50.0 mg/kg/injection, schedule: Q01DX005 (ip), vehicle: other) was 90 % of control. The T/C (endpoint: mean survival time, dose: 100.0 mg/kg/injection, schedule: Q01DX005 (ip), vehicle: other) was 94 % of control and the T/C (endpoint: mean survival time, dose: 200.0 mg/kg/injection, schedule: Q01DX005 (ip), vehicle: other) was 94 % of control.

`CC1(C)CCSC(/C=C/c2ccccc2)=N1` was tested, and the T/C [4] was 101 % of control, the T/C (endpoint: mean survival time, dose: 200.0 mg/kg/injection, schedule: Q01DX009 (ip), vehicle: other) was 117 % of control and the T/C (endpoint: mean survival time, dose: 400.0 mg/kg/injection, schedule: Q01DX009 (ip), vehicle: other) was 109 % of control.

In the case of `Cc1ccc(C2=C(Cl)C(=O)C(c3ccc(C)cc3)=C(Cl)C2=O)cc1`, the T/C (endpoint: mean survival time, dose: 75.0 mg/kg/injection, schedule: Q01DX001 (ip), vehicle: other) is reported as 92 % of control, the T/C (endpoint: mean survival time, dose: 150.0 mg/kg/injection, schedule: Q01DX001 (ip), vehicle: other) is reported as 92 % of control and the T/C (endpoint: mean survival time, dose: 300.0 mg/kg/injection, schedule: Q01DX001 (ip), vehicle: other) is reported as 94 % of control.

With `CO[C@@]12[C@@H]3N[C@@H]3CN1C1=C(C(=O)C(N3CCCC3)=C(C)C1=O)[C@@H]2COC(N)=O` the T/C (endpoint: median survival time, dose: 3.12 mg/kg/injection, schedule: Q01DX001 (ip), vehicle: saline with Tween-80) was 165 % of control, the T/C (endpoint: median survival time, dose: 6.26 mg/kg/injection, schedule: Q01DX001 (ip), vehicle: saline with Tween-80) was 151 % of control and the T/C (endpoint: median survival time, dose: 12.0 mg/kg/injection, schedule: Q01DX001 (ip), vehicle: saline with Tween-80) was 152 % of control and 197 % of control. The T/C (endpoint: median survival time, dose: 12.5 mg/kg/injection, schedule: Q01DX001 (ip), vehicle: saline with Tween-80) was 370 % of control, the T/C (endpoint: median survival time, dose: 24.0 mg/kg/injection, schedule: Q01DX001 (ip), vehicle: saline with Tween-80) was 171 % of control and 326 % of control and the T/C (endpoint: median survival time, dose: 25.0 mg/kg/injection, schedule: Q01DX001 (ip), vehicle: saline with Tween-80) was 111 % of control. The T/C (endpoint: median survival time, dose: 50.0 mg/kg/injection, schedule: Q01DX001 (ip), vehicle: saline with Tween-80) was 91 % of control.

`COc1ccc(C=NC2C(OC(C)=O)OC(COC(C)=O)C(OC(C)=O)C2OC(C)=O)cc1` (stereo not given) was tested, and the T/C (endpoint: mean survival time, dose: 6.25 mg/kg/injection, schedule: Q01DX009 (ip), vehicle: other) was 96 % of control, the T/C (endpoint: mean survival time, dose: 12.5 mg/kg/injection, schedule: Q01DX009 (ip), vehicle: other) was 96 % of control and the T/C (endpoint: mean survival time, dose: 25.0 mg/kg/injection, schedule: Q01DX009 (ip), vehicle: other) was 93 % of control. The T/C (endpoint: mean survival time, dose: 50.0 mg/kg/injection, schedule: Q01DX009 (ip), vehicle: other) was 94 % of control and the T/C [4] was 96 % of control.

— PubChem BioAssay AID256 (DTP/NCI, 2004)
